PMC12152147, “DDB1 engagement defines the selectivity of S656 analogs for cyclin K degradation over CDK inhibition” (EMBO Reports, 2025)
Values joined by “and” are separate entries in the source; they are usually repeats but may differ in a detail not shown here. Equal entries are not always repeated.

Columns and labels:
primary AML specimens = experiment: Discovery screen: 6-day single-dose (1 μM) viability, CellTiterGlo; format: cell-based, human; settings: 6 days
From the text: As recently described, our group conducted a high-throughput screening (HTS) assay assessing the response of 56 primary AML specimens to a library of 10,000 compounds (Moison et al, [2024]). This diverse small molecule library encompassed compounds with a wide range of structural diversity (Bristol-Myers Squibb), including clinical-grade compounds. Primary AML specimens representing the biological diversity of the disease, along with normal hematopoietic cells (CD34^+ cord blood cells), were exposed to a 6-day single-dose compound treatment (1 μM) and viability was assessed using the CellTiterGlow luminescent assay (Appendix Fig. S1A–C). A profile of inhibition—or fingerprint—was generated for each small molecule across the 56 primary AML specimens tested. […] Among these candidates, 12 were validated in cell lines and primary specimens and selected based on their chemotypes. […] Of note, highly sensitive AML specimens spanned various AML subgroups, underscoring the broad activity of S656 across genetically diverse AMLs (Fig. 1D).
Freshly thawed primary AML specimens were used for chemical screens. […] Cell viability was evaluated after 6 days in culture using the CellTiterGlo assay according to the manufacturer’s instruction. Percentage of inhibition for dose response curves was calculated as 100 – (100 × (mean luminescence [compound]/mean luminescence [DMSO])). […]

OCI-AML5 cells = experiment: Cell cycle profile (Hoechst 33342 flow cytometry); format: cell-based, H. sapiens; settings: 24 h
Experimental: For cell cycle experiments, 500,000 cells in exponential growth phase were incubated in pre-warmed media containing 10 μg/mL Hoechst 33342 during 45 min in incubator (37 °C in 5% CO2). After wash, cells were resuspended in cold media and recorded on BD FACSCelesta cytometer at low flow rate and analyzed with FlowJo v10 (Tree Star).

[1] = molecular target: T1, OCI-AML5 total protein extracts (cyclin K, CDKs, DDB1) (Homo sapiens, UniProt Q6UXT9); experiment: Pull-down with immobilized probes and quantitative mass spectrometry; format: binding, H. sapiens; settings: protein ABHD15 (Q6UXT9)
T1 construct: endogenous in cells; host or cells: OCI-AML5 total protein extract
T1 sequence (Q6UXT9 24-468): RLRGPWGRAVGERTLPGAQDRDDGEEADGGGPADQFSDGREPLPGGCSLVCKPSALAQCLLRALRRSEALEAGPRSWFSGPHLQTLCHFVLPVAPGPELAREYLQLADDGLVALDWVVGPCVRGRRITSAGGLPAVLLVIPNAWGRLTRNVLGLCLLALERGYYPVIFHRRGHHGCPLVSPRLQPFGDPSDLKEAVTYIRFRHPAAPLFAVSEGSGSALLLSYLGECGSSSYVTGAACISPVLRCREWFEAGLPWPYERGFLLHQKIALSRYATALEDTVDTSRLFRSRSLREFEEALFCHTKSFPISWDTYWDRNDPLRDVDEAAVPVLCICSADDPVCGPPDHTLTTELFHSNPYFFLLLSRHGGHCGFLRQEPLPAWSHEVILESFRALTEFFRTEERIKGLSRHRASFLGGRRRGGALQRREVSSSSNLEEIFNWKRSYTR
Experimental: (§1) Probe compounds were immobilized through their terminal amine on NHS-sepharose beads as previously described (Médard et al, [2015]). The prepared beads were then washed in PBS and equilibrated in Triton X-100 buffer. For each replicate, 1–2 mg of total proteins (2 mg/ml) were incubated end-over-end with 25 μl of beads overnight at 4 °C in low protein binding microtubes (Sarstedt). The samples were then washed twice in Triton X-100 buffer, transferred to new microtubes and further washed six times in PBS including another microtube transfer at the last wash. Beads pellets were resuspended in 50 mM ammonium bicarbonate and subjected to reduction, alkylation and tryptic digest as described above. Peptides were separated on an home-made reversed-phase column (150-μm i.d. by 200 mm) with a 56-min gradient from 10 to 30% ACN-0.2% FA and a 600-nl/min flow rate on a Easy nLC-1200 connected to a Exploris 480 (ThermoFisher Scientific, San Jose, CA). Each full MS spectrum acquired at a resolution of 120,000 was followed by tandem-MS (MS-MS) spectra acquisition on the most abundant multiply charged precursor ions for 3 s. Tandem-MS experiments were performed using higher energy collision dissociation (HCD) at a collision energy of 34%. The data were processed using PEAKS X Pro (Bioinformatics Solutions, Waterloo, ON) and a Uniprot human database (20366 entries). Mass tolerances on precursor and fragment ions were 10 ppm and 0.01 Da, respectively. Fixed modification was carbamidomethyl (C). Variable selected posttranslational modifications were acetylation (N-ter), oxidation (M), deamidation (NQ), phosphorylation (STY). The data were visualized with Scaffold 5.0 (protein threshold, 99%, with at least 2 peptides identified and a false-discovery rate [FDR] of 1% for peptides).
(§2) Differential Enrichment analysis of Proteomics data (DEP) package (Zhang et al, [2018]) in R was used to analyze the data (excluding proteins identified based on a single peptide), including data filtering, normalization, imputation of missing values and statistical testing of differentially expressed proteins.

[2] = molecular target: T2, OCI-AML5 total protein extracts (cyclin K, CDKs, DDB1) (Homo sapiens, UniProt Q86UQ4); experiment: as above; format: binding, H. sapiens; settings: protein ABCA13 (Q86UQ4)
T2 construct: endogenous in cells; host or cells: OCI-AML5 total protein extract
Experimental: as §1, §2

[3] = molecular target: T3, OCI-AML5 total protein extracts (cyclin K, CDKs, DDB1) (Homo sapiens, UniProt Q9NYV4); experiment: as above; format: binding, H. sapiens; settings: OCI-AML5 total protein extracts; DEP analysis
T3 construct: endogenous in cells; host or cells: OCI-AML5 total protein extract
T3 sequence (Q9NYV4 whole entry): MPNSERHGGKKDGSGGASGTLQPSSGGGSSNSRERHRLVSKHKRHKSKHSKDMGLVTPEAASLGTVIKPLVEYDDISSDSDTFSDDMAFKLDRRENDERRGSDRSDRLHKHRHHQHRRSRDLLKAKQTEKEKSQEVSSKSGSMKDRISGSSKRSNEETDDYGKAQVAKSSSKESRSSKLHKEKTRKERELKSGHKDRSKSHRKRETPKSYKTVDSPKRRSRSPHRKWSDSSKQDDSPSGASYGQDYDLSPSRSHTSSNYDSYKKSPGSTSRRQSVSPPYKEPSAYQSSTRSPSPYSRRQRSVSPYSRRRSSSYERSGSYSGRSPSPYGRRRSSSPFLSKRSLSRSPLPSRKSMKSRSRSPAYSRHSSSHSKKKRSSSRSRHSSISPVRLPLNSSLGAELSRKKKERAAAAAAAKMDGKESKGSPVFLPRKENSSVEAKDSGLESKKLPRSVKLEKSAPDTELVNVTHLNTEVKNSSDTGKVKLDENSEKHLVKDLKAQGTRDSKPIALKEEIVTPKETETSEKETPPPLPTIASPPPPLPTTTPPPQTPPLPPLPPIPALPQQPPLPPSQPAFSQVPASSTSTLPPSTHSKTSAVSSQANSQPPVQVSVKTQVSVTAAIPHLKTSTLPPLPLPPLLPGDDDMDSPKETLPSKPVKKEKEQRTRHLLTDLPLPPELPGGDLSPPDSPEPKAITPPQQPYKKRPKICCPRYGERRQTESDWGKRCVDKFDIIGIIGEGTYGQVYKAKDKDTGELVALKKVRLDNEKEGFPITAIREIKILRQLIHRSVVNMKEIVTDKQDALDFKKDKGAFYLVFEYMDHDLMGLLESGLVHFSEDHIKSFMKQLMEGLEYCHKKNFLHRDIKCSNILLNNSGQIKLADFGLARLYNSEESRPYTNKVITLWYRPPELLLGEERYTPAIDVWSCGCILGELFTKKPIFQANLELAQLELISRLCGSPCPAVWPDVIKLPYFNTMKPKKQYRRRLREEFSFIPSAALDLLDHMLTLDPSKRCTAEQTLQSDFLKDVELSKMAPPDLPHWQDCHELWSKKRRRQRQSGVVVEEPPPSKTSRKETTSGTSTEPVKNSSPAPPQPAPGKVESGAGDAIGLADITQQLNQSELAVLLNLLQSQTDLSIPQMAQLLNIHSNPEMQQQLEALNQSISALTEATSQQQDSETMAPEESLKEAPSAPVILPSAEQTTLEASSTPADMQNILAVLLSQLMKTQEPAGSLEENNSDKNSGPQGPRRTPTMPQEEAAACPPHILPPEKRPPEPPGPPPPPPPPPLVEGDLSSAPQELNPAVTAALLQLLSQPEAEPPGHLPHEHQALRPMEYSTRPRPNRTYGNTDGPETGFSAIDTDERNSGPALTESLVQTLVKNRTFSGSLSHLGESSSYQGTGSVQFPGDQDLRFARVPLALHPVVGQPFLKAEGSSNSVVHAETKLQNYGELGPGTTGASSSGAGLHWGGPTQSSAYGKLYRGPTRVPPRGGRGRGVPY
Experimental: as §1, §2

[4] = centered abundance, competition (compe)
[5] = probe vs probe with competition
[6] = probe with competition (compe) vs UOM-005839
[7] = probe with competition (compe) vs beads

For `CN(C)c1ccc(CC(=O)Nc2ncc(SCc3cccnc3)s2)cc1` [S656], the inhibition at 1 µM (primary AML specimens; Homo sapiens, 144 h, 1 μM, in 10 out of 56 primary AML specimens, read-out: growth inhibition) was > 70%, the “% inhibition S656 at 1uM” value (primary AML specimens; discovery screen, one primary AML specimen per row (Patient ID in c0)) was 0.00% and the “percentage of cells in G1” value (OCI-AML5 cells; S656 1uM) was 50.8% and 63.1% and 58.6%. For the same compound, the “percentage of cells in G2/M” value (OCI-AML5 cells; S656 1uM) was 26.6% and 23.9% and 22.5%, the “percentage of cells in S” value (OCI-AML5 cells; S656 1uM) was 21.5% and 12.1% and 18.1% and the “percentage of cells in G1” value (OCI-AML5 cells; S656 3uM) was 69.1% and 60.5% and 65.7%. The “percentage of cells in G2/M” value (OCI-AML5 cells; S656 3uM) was 17.7% and 29.1% and 24.3% and the “percentage of cells in S” value (OCI-AML5 cells; S656 3uM) was 12% and 9.62% and 8.06%.

`CN(CCOCCOCCN)c1ccc(CC(=O)Nc2ncc(SCc3cccnc3)s2)cc1` [UOM-005790] was tested, and the UOM-005790_centered ([1]; centered abundance) was 1.53, the UOM-005790compe_centered [1, 4] was 1.26 and the UOM-005790_vs_Beads_ratio ([1]; immobilized probe vs beads) was 5.2. It also gave a UOM-005790_vs_UOM-005839_ratio ([1]; probe vs probe UOM-005839) of 0.645, a UOM-005790_vs_UOM-005790compe_ratio [1, 5] of 0.275 and a UOM-005790compe_vs_UOM-005839_ratio [1, 6] of 0.37. For the same compound, the UOM-005790compe_vs_Beads_ratio [1, 7] was 4.93, the UOM-005790_centered ([2]; centered abundance) was 0.56 and the UOM-005790compe_centered [2, 4] was -0.869. For the same compound, the UOM-005790_vs_Beads_ratio ([2]; immobilized probe vs beads) was 0.378, the UOM-005790_vs_UOM-005839_ratio ([2]; probe vs probe UOM-005839) was 0.434 and the UOM-005790_vs_UOM-005790compe_ratio [2, 5] was 1.43. The UOM-005790compe_vs_UOM-005839_ratio [2, 6] was -0.995, the UOM-005790compe_vs_Beads_ratio [2, 7] was -1.05 and the “pull-down enrichment of CDK12” value [3] was 0.5953 and 0.6765 and 0.5336.
